Results on two molecules are retold here after patent US10716788B2, “Methods for treating MS using pyrimidine and pyridine compounds with BTK inhibitory activity” (Merck Patent GmbH, priority 2015, dated 2020).

Each structure is given as a SMILES string.

Experiment [1] concerns PLP139-151 induced EAE in female SJL mice. The experiment in a line: PLP139-151 induced EAE in SJL mice (relapsing remitting mouse model of MS). The experiment is classed as in vivo. Particulars: for relapse activity / relapses: FIG. 2 / FIG. 10.
Another experiment deals with RA models. Particulars: 3 mg/kg PO; cited from earlier work.
Setting [2] is: prophylactic treatment from Day 0 post-induction, 0.3, 1.0, 3 mg/kg PO QD, FIG. 1 / FIG. 9.
[3] abbreviates: prophylactic treatment from Day 0 post-induction, 0.3, 1.0, 3 mg/kg PO QD.
Setting [4] is: therapeutic dosing from Day 9 post-induction, 1.0, 3, 10 mg/kg PO QD, FIG. 15.

On to `C=CC(=O)N1CCC(CNc2ncnc(N)c2-c2ccc(Oc3ccccc3)cc2)CC1` [Compound (1), 1-(4-(((6-amino-5-(4-phenoxyphenyl)pyrimidin-4-yl)amino)methyl)piperidin-1-yl)prop-2-en-1-one], for which, in experiment [1] (prophylactic treatment from Day 0 post-induction, 0.3, 1.0, 3 mg/kg PO QD, FIG. 1), the disease onset result was “delayed onset”. Besides, the “disease severity (clinical score)” value is given as “reduced disease severity” in experiment [1] (setting [2]) and “reduced disease severity” in experiment [1] (therapeutic treatment, start at remission, 1, 3, 10 mg/kg PO QD, FIG. 3). Besides, the “relapse activity / relapses” value in experiment [1] (setting [3]) is on record as “reduced relapse activity”. The relapse activity entry in experiment [1] (therapeutic treatment, start at remission, 1, 3, 10 mg/kg PO QD, FIG. 4) is on record as “reduced relapse activity”.

Regarding `C=CC(=O)N1CCC(F)(CNc2ncnc(N)c2-c2ccc(Oc3ccccc3)cc2)CC1` [Compound (2), 1-(4-(((6-amino-5-(4-phenoxyphenyl)pyrimidin-4-yl)amino)methyl)-4-fluoropiperidin-1-yl)prop-2-en-1-one], the number of relapses result in experiment [1] (dosing from Day 7 post-induction (before onset of EAE), 1.0 and 10 mg/kg PO QD, FIG. 21) is “reduced the number of relapses”; in experiment [1] (therapeutic dosing from Day 17 post-induction, 1.0 and 10 mg/kg PO QD, FIG. 19) it was “reduced the number of relapses”. Further, the “disease severity (clinical score)” value in experiment [1] (setting [2]) was “significantly decreases disease severity”; in experiment [1] (semi-therapeutic dosing from Day 7 post-induction (before onset of EAE), 1.0 and 10 mg/kg PO QD, FIG. 20), “reduced disease severity”; in experiment [1] (therapeutic dosing from Day 9 post-induction, 1.0, 3, 10 mg/kg PO QD, FIG. 14) it was “reduced disease severity”; in experiment [1] (therapeutic dosing from Day 17 post-induction, 1.0 and 10 mg/kg PO QD, FIG. 18), “reduced disease severity”. Moreover, in experiment [1] (setting [3]), the “relapse activity / relapses” value is “decreased”. In addition, the incidence of disease entry in experiment [1] (prophylactic treatment from Day 0 post-induction, 0.3, 1.0, 3 mg/kg PO QD, FIG. 10) is recorded as “decreased incidence of disease”. Further, in experiment [1] (setting [4]), the relapses result is recorded as “decreased relapses”. Also, the “time to first relapse” value in experiment [1] (setting [4]) is reported as “prolonged time to first relapse”. Besides, the “efficacy on RA models” value with RA models is on record as “efficacious”.
